For data set [1] the following is noted: background art; cited from earlier work.
Data set [2] is described as follows: Dissolution test, paddle method of the Korean Pharmacopoeia, 50 rpm, capsules with sinker, HPLC. Format: physicochemical. The protocol:
Dissolution tests were performed with examples 1˜6, comparative examples 1˜2, sibutramine free base itself and Reductil™ (Abbott Korea Limited) containing 10[…] of sibutramine hydrochloride monohydrate. To keep dissolution test condition similar, the contents of sibutramine in examples and comparative examples were evaluated with the below HPLC analysis condition and then the predetermined amount of examples, comparative examples and sibutramine free base itself were filled in one capsule to make capsules having 8.37[…] of sibutramine free base. These capsules were used in dissolution tests.
500[…] of pH 4.5 buffered solution [2.99 g of Sodium acetate trihydrate and 1.66[…] of acetic acid anhydrous were dissolved in 1 L of distilled water and then pH of the solution was adjusted to pH 4.5±0.05] and 500[…] of pH 6.8 buffered solution [118[…] of 0.2 mol/L NaOH solution was added to 250[…] of 0.2 mol/L […], and then distilled water was added to make the solution 1000[…]] were used as dissolution media. Paddle method of dissolution test of the Korean Pharmacopoeia was used and paddle was rotated at 50 rpm. Dissolution test was performed for 45 minutes and sinker was also used.
For HPLC analysis, mixture (350:640:10) of acetonitrile, water and tetrahydrofuran was used as mobile phase and ion pair reagent PIC B5 (Low UV) was added to the mobile phase to adjust retention time of peak, and then pH was adjusted to 3.0 with phosphoric acid. Wavelength for determination was 229[…] and flow rate was 1.5[…]/min and injection volume was 20[…].
Results were shown as percent (%) of sibutramine dissolved into dissolution media from test samples compared to the total amount of sibutramine contained in each sample.

The nature of data set [3]: Solubility and dissolution as stated in the background art. The conditions noted are these: distilled water and pH 6.8 buffered solution.
Data set [4] in a line: Hygroscopicity and storage stability of the drug substance as stated in the background art. The settings on record: during storage.
The conditions of data set [5]: as said in U.S. Pat. No. 6,900,245; cited from earlier work.

Counter-ions that a name gives are not always drawn. Like-named read-outs stand apart in the source and are kept apart here.

For `CC(C)CC(N(C)C)C1(c2ccc(Cl)cc2)CCC1.Cl` (stereo not drawn) [sibutramine hydrochloride anhydrous], the hygroscopicity in words result in data set [1] is given as “highly hygroscopic”.

Turning to `CC(C)CC(N(C)C)C1(c2ccc(Cl)cc2)CCC1` (stereo not drawn) [Sibutramine free base, N,N-dimethyl-1-[1-(4-chlorophenyl)-cyclobutyl]-3-methylbutylamine], the “percent of sibutramine dissolved into dissolution media” value in data set [2] (distilled water, 15 min) is 0%; in data set [2] (distilled water, 30 min), 0%; in data set [2] (distilled water, 45 min), 0%; in data set [2] (pH 4.5 buffered solution, 15 min), 62%; in data set [2] (pH 4.5 buffered solution, 30 min) it was 80%; in data set [2] (pH 4.5 buffered solution, 45 min), 88%. Besides, the “percent of sibutramine dissolved into dissolution media” value in data set [2] (pH 6.8 buffered solution, 15 min) was determined as 0%; in data set [2] (pH 6.8 buffered solution, 30 min), 0%; in data set [2] (pH 6.8 buffered solution, 45 min), 0%. Further, the dissolution in words entry in data set [2] (pH 6.8 buffered solution) is recorded as “did not practically dissolve”. Also, the solubility in words entry in data set [3] is reported as “does not almost dissolve”. For the same compound, the “storage stability in words” value in data set [4] is recorded as “may become sticky gel phase during storage”.

As for `CC(C)CC(N(C)C)C1(c2ccc(Cl)cc2)CCC1` (stereo not drawn) [sibutramine hydrochloride monohydrate], the hygroscopicity in words result in data set [1] is given as “non-hygroscopic”. Moreover, the solubility in words result in data set [5] was “insufficient”.

(Values after patent US20080194695A1, “Pharmaceutical Composition Containing Sibutramine Free Base and Manufacturing Method Thereof” (priority 2005, published 2008).)
